Data reported in ChEMBL document CHEMBL5465560, “Selectivity Literature for EUbOPEN Chemogenomic Library” (2024).
Each block holds one compound with its values, some of them ahead of it.

How the values were obtained:
[1] = biological target: T1, Dual specificity tyrosine-phosphorylation-regulated kinase 2 (Homo sapiens, UniProt Q92630); assay: Selectivity interaction (Enzymatic assay (Eurofins)) EUB0001049a DYRK2
T1 sequence (Q92630 whole entry): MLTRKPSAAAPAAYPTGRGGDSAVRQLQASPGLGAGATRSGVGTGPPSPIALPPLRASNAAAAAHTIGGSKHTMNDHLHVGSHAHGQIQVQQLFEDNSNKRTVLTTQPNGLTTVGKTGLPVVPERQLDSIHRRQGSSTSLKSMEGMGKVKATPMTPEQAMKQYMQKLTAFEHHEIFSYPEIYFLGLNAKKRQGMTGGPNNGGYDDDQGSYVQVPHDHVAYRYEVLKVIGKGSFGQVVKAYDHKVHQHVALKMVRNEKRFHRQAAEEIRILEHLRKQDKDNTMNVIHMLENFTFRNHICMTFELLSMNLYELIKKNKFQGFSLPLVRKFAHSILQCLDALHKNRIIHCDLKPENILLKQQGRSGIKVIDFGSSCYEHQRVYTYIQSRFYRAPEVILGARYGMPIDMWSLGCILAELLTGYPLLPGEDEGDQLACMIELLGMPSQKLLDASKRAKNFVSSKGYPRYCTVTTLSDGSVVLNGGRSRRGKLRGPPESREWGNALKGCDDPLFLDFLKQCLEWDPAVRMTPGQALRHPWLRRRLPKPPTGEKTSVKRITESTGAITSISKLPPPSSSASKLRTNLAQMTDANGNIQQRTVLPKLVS

[2] = biological target: T2, Mitogen-activated protein kinase kinase kinase 13 (Homo sapiens) (UniProt O43283); assay: Selectivity interaction (Ambit KINOMEscan and KiNATiv profiling in Jurkat cells) EUB0000090b MAP3K13; format: cell-based; details: at 1 µM
T2 sequence (whole entry): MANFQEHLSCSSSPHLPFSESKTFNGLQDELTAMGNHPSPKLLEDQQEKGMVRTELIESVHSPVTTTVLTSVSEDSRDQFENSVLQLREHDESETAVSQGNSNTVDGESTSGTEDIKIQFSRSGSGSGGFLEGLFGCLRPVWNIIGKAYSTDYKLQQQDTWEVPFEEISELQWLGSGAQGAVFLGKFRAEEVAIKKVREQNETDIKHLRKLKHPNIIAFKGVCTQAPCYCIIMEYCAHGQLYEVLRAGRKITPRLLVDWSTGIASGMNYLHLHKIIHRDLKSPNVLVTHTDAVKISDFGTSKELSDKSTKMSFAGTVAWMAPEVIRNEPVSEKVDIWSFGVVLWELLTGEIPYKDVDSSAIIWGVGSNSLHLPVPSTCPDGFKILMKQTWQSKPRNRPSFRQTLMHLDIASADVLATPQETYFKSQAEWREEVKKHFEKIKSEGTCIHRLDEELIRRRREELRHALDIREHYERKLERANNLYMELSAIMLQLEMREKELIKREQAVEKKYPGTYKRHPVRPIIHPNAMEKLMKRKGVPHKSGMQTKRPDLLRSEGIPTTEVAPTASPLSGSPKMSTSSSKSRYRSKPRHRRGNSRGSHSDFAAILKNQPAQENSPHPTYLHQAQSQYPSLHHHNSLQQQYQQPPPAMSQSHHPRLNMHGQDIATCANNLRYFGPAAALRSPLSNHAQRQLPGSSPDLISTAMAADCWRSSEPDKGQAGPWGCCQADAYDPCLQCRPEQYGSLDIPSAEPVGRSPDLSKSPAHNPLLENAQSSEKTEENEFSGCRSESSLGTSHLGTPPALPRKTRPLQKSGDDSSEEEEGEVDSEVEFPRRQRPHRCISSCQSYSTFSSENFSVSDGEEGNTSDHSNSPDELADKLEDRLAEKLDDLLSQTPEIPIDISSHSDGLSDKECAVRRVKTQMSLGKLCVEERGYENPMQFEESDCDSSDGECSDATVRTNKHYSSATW

[3] = biological target: T3, Dual specificity mitogen-activated protein kinase kinase 3 (Homo sapiens) (UniProt P46734); assay: Selectivity interaction (ActivX KiNativ screen (kinase selectivity in THP-1 cell lysates)) EUB0000639a MAP2K3; format: subcellular; details: lysate, at 0.01 µM
T3 sequence (whole entry): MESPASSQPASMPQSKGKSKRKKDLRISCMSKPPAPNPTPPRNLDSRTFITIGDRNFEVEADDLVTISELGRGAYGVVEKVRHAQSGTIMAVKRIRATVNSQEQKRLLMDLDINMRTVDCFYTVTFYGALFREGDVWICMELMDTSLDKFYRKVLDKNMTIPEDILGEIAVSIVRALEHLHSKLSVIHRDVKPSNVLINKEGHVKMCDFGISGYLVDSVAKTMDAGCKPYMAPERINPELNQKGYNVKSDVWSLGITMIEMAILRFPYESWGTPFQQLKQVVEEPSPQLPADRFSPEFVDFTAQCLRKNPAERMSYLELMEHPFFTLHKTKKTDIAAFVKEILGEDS

[4] = biological target: T4, Myosin light chain kinase family member 4 (Homo sapiens) (UniProt Q86YV6); details: at 10 µM
T4 sequence (whole entry): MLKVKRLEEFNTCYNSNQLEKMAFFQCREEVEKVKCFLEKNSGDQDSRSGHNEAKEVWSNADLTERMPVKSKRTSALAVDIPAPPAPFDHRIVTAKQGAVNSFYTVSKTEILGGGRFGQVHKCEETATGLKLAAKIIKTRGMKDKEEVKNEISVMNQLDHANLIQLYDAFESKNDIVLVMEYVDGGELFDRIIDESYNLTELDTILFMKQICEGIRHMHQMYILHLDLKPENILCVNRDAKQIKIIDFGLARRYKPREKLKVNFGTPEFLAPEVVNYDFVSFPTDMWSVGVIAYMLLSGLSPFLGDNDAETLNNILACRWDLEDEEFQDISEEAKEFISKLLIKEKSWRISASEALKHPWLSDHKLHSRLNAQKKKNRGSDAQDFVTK

[5] = biological target: Ribosomal protein S6 kinase alpha-4 (Homo sapiens) (UniProt O75676); assay: Selectivity interaction (KinomeScan (DiscoverX)) EUB0000595a RPS6KA4; details: at 10 µM
[6] = biological target: Cyclin-dependent kinase 3 (Homo sapiens) (UniProt Q00526); assay: Selectivity interaction (KinomeScan (DiscoverX)) EUB0000655a CDK3; details: at 10 µM
[7] = system: Epidermal growth factor receptor (Homo sapiens), P00533 [UNDEFINED MUTATION]; assay: Selectivity interaction (KinomeScan (DiscoverX)) EUB0001619a EGFR; details: at 1 µM
Sequence of Epidermal growth factor receptor (Homo sapiens), P00533 [UNDEFINED MUTATION] (P00533 whole entry, looked up, change not shown): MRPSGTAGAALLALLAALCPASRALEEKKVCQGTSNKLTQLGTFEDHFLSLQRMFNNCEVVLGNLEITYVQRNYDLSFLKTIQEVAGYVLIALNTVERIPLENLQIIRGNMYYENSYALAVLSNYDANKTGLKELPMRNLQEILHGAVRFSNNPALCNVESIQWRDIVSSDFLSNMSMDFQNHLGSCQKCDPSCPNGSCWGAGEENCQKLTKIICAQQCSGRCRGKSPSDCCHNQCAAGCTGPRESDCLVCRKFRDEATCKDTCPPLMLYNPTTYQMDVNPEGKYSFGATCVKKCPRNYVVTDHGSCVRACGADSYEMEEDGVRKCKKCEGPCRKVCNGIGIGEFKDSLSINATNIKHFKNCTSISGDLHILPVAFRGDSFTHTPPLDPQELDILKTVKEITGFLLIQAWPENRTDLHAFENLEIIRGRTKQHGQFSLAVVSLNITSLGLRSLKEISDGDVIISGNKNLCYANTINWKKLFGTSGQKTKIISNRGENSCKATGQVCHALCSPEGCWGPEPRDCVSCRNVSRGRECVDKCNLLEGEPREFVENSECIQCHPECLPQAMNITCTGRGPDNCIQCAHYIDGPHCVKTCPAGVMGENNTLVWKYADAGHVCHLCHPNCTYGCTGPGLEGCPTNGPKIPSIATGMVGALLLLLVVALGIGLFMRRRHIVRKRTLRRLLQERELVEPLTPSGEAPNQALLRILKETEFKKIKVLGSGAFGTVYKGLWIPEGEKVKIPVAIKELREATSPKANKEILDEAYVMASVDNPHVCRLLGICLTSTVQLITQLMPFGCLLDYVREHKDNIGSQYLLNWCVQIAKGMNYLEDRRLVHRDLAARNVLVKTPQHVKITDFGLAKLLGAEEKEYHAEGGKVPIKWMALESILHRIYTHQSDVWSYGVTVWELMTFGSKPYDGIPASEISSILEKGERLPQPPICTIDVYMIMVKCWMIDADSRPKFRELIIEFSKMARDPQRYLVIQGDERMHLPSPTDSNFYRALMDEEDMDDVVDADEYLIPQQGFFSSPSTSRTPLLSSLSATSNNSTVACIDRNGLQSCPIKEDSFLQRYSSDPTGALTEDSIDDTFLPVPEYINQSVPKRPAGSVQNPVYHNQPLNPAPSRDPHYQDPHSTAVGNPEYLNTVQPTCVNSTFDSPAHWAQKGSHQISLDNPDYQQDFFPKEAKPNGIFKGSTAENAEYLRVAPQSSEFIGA

Sequence of Ribosomal protein S6 kinase alpha-4 (Homo sapiens) (O75676 whole entry, looked up): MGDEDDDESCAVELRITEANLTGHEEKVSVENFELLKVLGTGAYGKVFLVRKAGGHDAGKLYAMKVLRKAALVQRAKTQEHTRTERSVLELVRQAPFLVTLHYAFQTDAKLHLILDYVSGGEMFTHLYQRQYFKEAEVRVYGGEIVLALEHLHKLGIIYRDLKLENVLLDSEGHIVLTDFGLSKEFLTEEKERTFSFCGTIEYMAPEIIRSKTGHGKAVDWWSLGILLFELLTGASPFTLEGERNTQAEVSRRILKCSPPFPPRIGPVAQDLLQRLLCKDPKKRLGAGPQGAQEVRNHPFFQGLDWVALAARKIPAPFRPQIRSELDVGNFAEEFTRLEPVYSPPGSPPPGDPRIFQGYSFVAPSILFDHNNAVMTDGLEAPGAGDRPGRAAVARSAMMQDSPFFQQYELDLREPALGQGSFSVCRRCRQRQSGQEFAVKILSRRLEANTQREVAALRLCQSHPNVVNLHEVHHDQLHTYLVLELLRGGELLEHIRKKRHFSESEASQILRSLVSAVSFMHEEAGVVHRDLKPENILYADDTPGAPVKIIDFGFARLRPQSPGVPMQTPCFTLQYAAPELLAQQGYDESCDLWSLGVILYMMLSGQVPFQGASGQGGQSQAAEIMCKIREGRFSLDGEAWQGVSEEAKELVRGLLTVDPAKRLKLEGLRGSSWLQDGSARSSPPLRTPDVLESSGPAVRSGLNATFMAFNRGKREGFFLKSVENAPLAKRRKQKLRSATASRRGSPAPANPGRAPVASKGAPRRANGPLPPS
Sequence of Cyclin-dependent kinase 3 (Homo sapiens) (Q00526 whole entry, looked up): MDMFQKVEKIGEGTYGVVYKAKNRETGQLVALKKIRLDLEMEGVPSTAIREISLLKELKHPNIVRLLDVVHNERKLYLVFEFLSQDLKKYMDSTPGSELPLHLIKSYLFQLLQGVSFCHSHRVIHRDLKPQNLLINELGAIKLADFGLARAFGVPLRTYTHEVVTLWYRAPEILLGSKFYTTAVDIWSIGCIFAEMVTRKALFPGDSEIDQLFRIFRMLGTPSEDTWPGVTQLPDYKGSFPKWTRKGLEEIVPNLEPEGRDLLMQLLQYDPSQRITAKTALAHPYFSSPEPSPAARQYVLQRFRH

Compound: COc1cc(Nc2nc(C)cc(-c3cnn4nc(OC)ccc34)n2)cc(C(F)(F)F)c1
IC50 [1]: > 10 µM

Compound: CN(C)C/C=C/C(=O)Nc1ccc(C(=O)N2CCCC(Nc3ncc(Cl)c(-c4c[nH]c5ccccc45)n3)C2)cc1 (configuration not stated)
% of control [2]: 95%

% of inhibition [3]: 9%
Compound: CC[C@@H]1[C@H](F)C(=O)N[C@@H]1COc1nccc2cc(C(N)=O)c(OC)cc12 [ZIMLOVISERTIB]

% of control [4]: 100%
Compound: CCN(CC)CCCCNc1ncc2cc(-c3cc(OC)cc(OC)c3)c(NC(=O)NC(C)(C)C)nc2n1

Compound: COCC(=O)NC/C=C/c1ccc2ncnc(Nc3ccc(Oc4ccc(C)nc4)c(C)c3)c2c1 [CP-724714]
% of control [5]: 100%

Compound: CN(C)CCOc1ccc(-c2nc(-c3ccncc3)c(-c3ccc4c(c3)CC/C4=N\O)[nH]2)cc1
% of control [6]: 98%

Compound: N#Cc1cccc(-c2c[nH]c3ncnc(N4CCOCC4)c23)c1
% of control [7]: 79%
